From ChEMBL document CHEMBL1201862, “PubChem BioAssay data set” (2004)
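Assay format: 96-well plates, 48-hour exposure. Here, GI50 denotes the concentration required for 50% inhibition of growth.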 Calls of active or inactive are those of the source. No stated cut-off is given here; in the data, active = GI50 up to about 1.1 µM and inactive = higher.

Legend:
Test in all cases: inhibition of tumour cell growth, NCI panel, 48 h
NCI-H460 = tested on: NCI-H460
SNB-19 = tested on: SNB-19
HCC 2998 = tested on: HCC 2998
HCT-116 = tested on: HCT-116
U-251 = tested on: U-251
SF-268 = tested on: SF-268
K562 = tested on: K562
SN12C = tested on: SN12C
KM12 = tested on: KM12
OVCAR-3 = tested on: OVCAR-3
HCT-15 = tested on: HCT-15
MDA-N = tested on: MDA-N
SR = tested on: SR
UO-31 = tested on: UO-31
RPMI-8226 = tested on: RPMI-8226
IGROV-1 = tested on: IGROV-1
SF-295 = tested on: SF-295
NCI/ADR-RES = tested on: NCI/ADR-RES
NCI-H522 = tested on: NCI-H522

`COc1cc([N+](=O)[O-])cc2c1NC(=O)C2(C)SC` (centres undefined) was tested, and the GI50 (NCI-H460) was > 100 µM (inactive), the GI50 (SNB-19) was > 100 µM (inactive) and the GI50 (HCC 2998) was > 100 µM (inactive). The GI50 (HCT-116) was 36.7 µM (inactive), the GI50 (U-251) was > 100 µM (inactive) and the GI50 (SF-268) was > 100 µM (inactive). For the same compound, the GI50 (K562) was 34.4 µM (inactive), the GI50 (SN12C) was 58.3 µM (inactive) and the GI50 (KM12) was > 100 µM (inactive). For the same compound, the GI50 (OVCAR-3) was 77.3 µM (inactive), the GI50 (HCT-15) was greater than 100 µM and the GI50 (MDA-N) was 51.8 µM (inactive). For the same compound, the GI50 (SR) was 68.2 µM (inactive), the GI50 (UO-31) was > 100 µM (inactive) and the GI50 (RPMI-8226) was > 100 µM (inactive). For the same compound, the GI50 (IGROV-1) was > 100 µM (inactive), the GI50 (SF-295) was 63.7 µM (inactive) and the GI50 (NCI/ADR-RES) was 94.6 µM (inactive). For the same compound, the GI50 (NCI-H522) was > 100 µM (inactive).
For `OC(C1=C/C(=C\c2ccncc2)c2ccccc21)c1ccncc1` (centres undefined), the GI50 (NCI-H460) was 12.9 µM (inactive), the GI50 (SNB-19) was 19.1 µM (inactive) and the GI50 (HCC 2998) was 8.39 µM (inactive). For the same compound, the GI50 (HCT-116) was 13.6 µM (inactive), the GI50 (U-251) was 14.7 µM (inactive) and the GI50 (SF-268) was 18.5 µM (inactive). The GI50 (K562) was 4.72 µM (inactive), the GI50 (SN12C) was 13.9 µM (inactive) and the GI50 (KM12) was 15.6 µM (inactive). For the same compound, the GI50 (OVCAR-3) was 11.1 µM (inactive), the GI50 (HCT-15) was 16.5 µM and the GI50 (MDA-N) was 10.8 µM (inactive). For the same compound, the GI50 (SR) was 5.4 µM (inactive), the GI50 (UO-31) was 8.99 µM (inactive) and the GI50 (RPMI-8226) was 2.37 µM (inactive). For the same compound, the GI50 (IGROV-1) was 14.4 µM (inactive), the GI50 (SF-295) was 8.65 µM (inactive) and the GI50 (NCI/ADR-RES) was 14.6 µM (inactive). The GI50 (NCI-H522) was 9.48 µM (inactive).
`CCc1n[nH]c(=O)n1/N=C/c1ccccc1Cl` was tested, and the GI50 (NCI-H460) was > 100 µM (inactive), the GI50 (SNB-19) was > 100 µM (inactive) and the GI50 (HCC 2998) was > 100 µM (inactive). The GI50 (HCT-116) was > 100 µM (inactive), the GI50 (U-251) was 65.8 µM (inactive) and the GI50 (SF-268) was 50 µM (inactive). For the same compound, the GI50 (K562) was > 100 µM (inactive), the GI50 (SN12C) was > 100 µM (inactive) and the GI50 (KM12) was 93.8 µM (inactive). For the same compound, the GI50 (OVCAR-3) was > 100 µM (inactive), the GI50 (HCT-15) was greater than 100 µM and the GI50 (MDA-N) was > 100 µM (inactive). The GI50 (SR) was > 100 µM (inactive), the GI50 (UO-31) was > 100 µM (inactive) and the GI50 (RPMI-8226) was > 100 µM (inactive). For the same compound, the GI50 (IGROV-1) was 78.3 µM (inactive), the GI50 (SF-295) was > 100 µM (inactive) and the GI50 (NCI/ADR-RES) was > 100 µM (inactive). For the same compound, the GI50 (NCI-H522) was > 100 µM (inactive).
With `CC1(C)CCCC2(C)C3=C(CCC12)C(=O)OC3` (centres undefined) the GI50 (HCC 2998) was > 100 µM (inactive), the GI50 (HCT-116) was > 100 µM (inactive) and the GI50 (U-251) was > 100 µM (inactive). The GI50 (SF-268) was > 100 µM (inactive), the GI50 (SN12C) was > 100 µM (inactive) and the GI50 (KM12) was > 100 µM (inactive). The GI50 (OVCAR-3) was > 100 µM (inactive), the GI50 (HCT-15) was 87.9 µM and the GI50 (MDA-N) was > 100 µM (inactive). The GI50 (SR) was 39.4 µM (inactive), the GI50 (UO-31) was 38.9 µM (inactive) and the GI50 (RPMI-8226) was 19.6 µM (inactive). For the same compound, the GI50 (IGROV-1) was > 100 µM (inactive), the GI50 (SF-295) was > 100 µM (inactive) and the GI50 (NCI/ADR-RES) was 86.3 µM (inactive). For the same compound, the GI50 (NCI-H522) was > 100 µM (inactive).
`CCN(CC)CCn1c2cc3c(cc2c(=O)c2cccnc21)OCO3` was tested, and the GI50 (NCI-H460) was 3.06 µM (inactive), the GI50 (SNB-19) was 8.07 µM (inactive) and the GI50 (HCC 2998) was 9.04 µM (inactive). For the same compound, the GI50 (HCT-116) was 4.79 µM (inactive), the GI50 (U-251) was 6.65 µM (inactive) and the GI50 (SF-268) was 6.71 µM (inactive). For the same compound, the GI50 (SN12C) was 6.4 µM (inactive), the GI50 (KM12) was 5.94 µM (inactive) and the GI50 (OVCAR-3) was 5.14 µM (inactive). The GI50 (HCT-15) was 3.72 µM, the GI50 (MDA-N) was 8.93 µM (inactive) and the GI50 (SR) was 4.34 µM (inactive). For the same compound, the GI50 (RPMI-8226) was 3.93 µM (inactive), the GI50 (IGROV-1) was 4.88 µM (inactive) and the GI50 (SF-295) was 4.71 µM (inactive). For the same compound, the GI50 (NCI/ADR-RES) was 4.93 µM (inactive) and the GI50 (NCI-H522) was 6.71 µM (inactive).
With `O=C(CC(C(=O)c1ccoc1)c1ccco1)c1ccco1` (centres undefined) the GI50 (NCI-H460) was > 100 µM (inactive), the GI50 (HCC 2998) was > 100 µM (inactive) and the GI50 (HCT-116) was > 100 µM (inactive). For the same compound, the GI50 (U-251) was > 100 µM (inactive), the GI50 (SF-268) was > 100 µM (inactive) and the GI50 (K562) was > 100 µM (inactive). The GI50 (SN12C) was > 100 µM (inactive), the GI50 (KM12) was 57 µM (inactive) and the GI50 (OVCAR-3) was > 100 µM (inactive). For the same compound, the GI50 (HCT-15) was greater than 100 µM, the GI50 (MDA-N) was 29.4 µM (inactive) and the GI50 (SR) was 85.7 µM (inactive). The GI50 (UO-31) was 65.9 µM (inactive), the GI50 (RPMI-8226) was > 100 µM (inactive) and the GI50 (IGROV-1) was > 100 µM (inactive). For the same compound, the GI50 (SF-295) was > 100 µM (inactive), the GI50 (NCI/ADR-RES) was 80.5 µM (inactive) and the GI50 (NCI-H522) was > 100 µM (inactive).
For `Cc1cccc2c(=O)c3c(O)cc(O)cc3n(C)c12`, the GI50 (NCI-H460) was > 100 µM (inactive), the GI50 (SNB-19) was > 100 µM (inactive) and the GI50 (HCC 2998) was > 100 µM (inactive). For the same compound, the GI50 (HCT-116) was > 100 µM (inactive), the GI50 (U-251) was > 100 µM (inactive) and the GI50 (SF-268) was > 100 µM (inactive). The GI50 (K562) was 63.5 µM (inactive), the GI50 (SN12C) was > 100 µM (inactive) and the GI50 (KM12) was > 100 µM (inactive). For the same compound, the GI50 (OVCAR-3) was > 100 µM (inactive), the GI50 (HCT-15) was greater than 100 µM and the GI50 (MDA-N) was > 100 µM (inactive). For the same compound, the GI50 (SR) was > 100 µM (inactive), the GI50 (RPMI-8226) was > 100 µM (inactive) and the GI50 (IGROV-1) was > 100 µM (inactive). The GI50 (SF-295) was > 100 µM (inactive), the GI50 (NCI/ADR-RES) was > 100 µM (inactive) and the GI50 (NCI-H522) was > 100 µM (inactive).
For `Cc1c(C)c(C)c(-n2c(=O)n(C)c(=O)n2-n2c(=O)n(C)c(=O)n2-c2c(C)c(C)c(C)c(C)c2C)c(C)c1C`, the GI50 (NCI-H460) was > 100 µM (inactive), the GI50 (SNB-19) was > 100 µM (inactive) and the GI50 (HCC 2998) was > 100 µM (inactive). The GI50 (HCT-116) was > 100 µM (inactive), the GI50 (U-251) was > 100 µM (inactive) and the GI50 (SF-268) was > 100 µM (inactive). The GI50 (K562) was > 100 µM (inactive), the GI50 (SN12C) was > 100 µM (inactive) and the GI50 (KM12) was > 100 µM (inactive). For the same compound, the GI50 (OVCAR-3) was > 100 µM (inactive), the GI50 (HCT-15) was greater than 100 µM and the GI50 (MDA-N) was > 100 µM (inactive). For the same compound, the GI50 (SR) was 20.5 µM (inactive), the GI50 (UO-31) was > 100 µM (inactive) and the GI50 (RPMI-8226) was > 100 µM (inactive). For the same compound, the GI50 (IGROV-1) was 51.5 µM (inactive), the GI50 (NCI/ADR-RES) was 61.2 µM (inactive) and the GI50 (NCI-H522) was 44.2 µM (inactive).
